As a reminder, the inhibition is the drop in the measured response relative to a control, in per cent. A lower inhibition goes with a response near the control. As a reminder, the half-life is the time needed for the level to fall by half in the phase considered. Broadly, the IC50 is the point on the concentration scale where inhibition reaches its midpoint. Broadly, the solubility is the concentration that dissolves in the medium under given conditions. Usually bioavailability stands for dose-corrected exposure relative to a reference, in per cent. High values mean good availability, low ones poor availability.

Consider six compounds from ChEMBL document CHEMBL1152381, “Investigation of aminopyridiopyrazinones as PDE5 inhibitors: Evaluation of modifications to the central ring system” (Bioorg Med Chem Lett, 2009).

The nature of data set [1]: Metabolic stability in human liver microsomes assessed as compound remaining after 30 mins. In kind it is ADME, Microsome. The settings on record: read-out: Stability.
The target in the next data set is hERG (KCNH2) (Homo sapiens, UniProt Q12809). The data set is described as follows: Displacement of dofetilide from human ERG at 10 uM. The note with it: probe dofetilide.
Data set [2] is described as follows: Half life in Sprague-Dawley rat at 2 mg/kg, iv and 2 mg/kg, po. It counts as ADME, organism-based. The note with it: in vivo.
Data set [3] is described as follows: Volume of distribution in Sprague-Dawley rat at 2 mg/kg, iv and 2 mg/kg, po. In kind it is ADME, organism-based. The note with it: in vivo.
Data set [4] can be described thus: Plasma protein binding in Sprague-Dawley rat at 2 mg/kg, iv and 2 mg/kg, po. In kind it is ADME, organism-based. The settings on record: read-out: PPB (converted).
For data set [5], the target named is cGMP-specific 3',5'-cyclic phosphodiesterase (Homo sapiens, UniProt O76074). The data set is described as follows: Inhibition of PDE5.
The target in data set [6] is Voltage-gated inwardly rectifying potassium channel KCNH2 (Homo sapiens, UniProt Q12809). The experiment in a line: Inhibition of human ERG by patch-clamp electrophysiology assay. A general note: In patch-clamp work, channel activity is measured electrically.
The next data set concerns Rattus norvegicus. The experiment in a line: Antihypertensive activity in SHR rat assessed as reduction in systemic arterial blood pressure at 1.5 mg/kg, ip administered as single bolus dose measured for > 3 hrs. In kind it is functional, Artery. The note with it: route intraperitoneal.
The nature of data set [7]: Inhibition of PDE11.
Data set [8] can be described thus: Clearance in Sprague-Dawley rat at 2 mg/kg, iv and 2 mg/kg, po. In kind it is ADME, organism-based. The settings on record: in vivo.
A short description of data set [9]: Aqueous solubility at pH 7.4. In kind it is physicochemical.
Data set [10] in a line: Inhibition of PDE6.
Data set [11] is described as follows: Selectivity ratio of IC50 for PDE11 to IC50 for PDE5.
The nature of data set [12]: Selectivity ratio of IC50 for PDE6 to IC50 for PDE5.
The nature of data set [13]: Bioavailability in Sprague-Dawley rat at 2 mg/kg, iv and 2 mg/kg, po. The settings on record: in vivo. It counts as ADME, organism-based.
The nature of data set [14]: Metabolic stability in human hepatocytes assessed as compound remaining after 30 mins. It counts as ADME, cell-based, Hepatocyte. The note with it: read-out: Stability.

Values after ≈ are worked out from the molar mass of the structure shown. A value given as a limit tells only on which side of the number the result lay.

hERG (KCNH2), sequence (Q12809 whole entry): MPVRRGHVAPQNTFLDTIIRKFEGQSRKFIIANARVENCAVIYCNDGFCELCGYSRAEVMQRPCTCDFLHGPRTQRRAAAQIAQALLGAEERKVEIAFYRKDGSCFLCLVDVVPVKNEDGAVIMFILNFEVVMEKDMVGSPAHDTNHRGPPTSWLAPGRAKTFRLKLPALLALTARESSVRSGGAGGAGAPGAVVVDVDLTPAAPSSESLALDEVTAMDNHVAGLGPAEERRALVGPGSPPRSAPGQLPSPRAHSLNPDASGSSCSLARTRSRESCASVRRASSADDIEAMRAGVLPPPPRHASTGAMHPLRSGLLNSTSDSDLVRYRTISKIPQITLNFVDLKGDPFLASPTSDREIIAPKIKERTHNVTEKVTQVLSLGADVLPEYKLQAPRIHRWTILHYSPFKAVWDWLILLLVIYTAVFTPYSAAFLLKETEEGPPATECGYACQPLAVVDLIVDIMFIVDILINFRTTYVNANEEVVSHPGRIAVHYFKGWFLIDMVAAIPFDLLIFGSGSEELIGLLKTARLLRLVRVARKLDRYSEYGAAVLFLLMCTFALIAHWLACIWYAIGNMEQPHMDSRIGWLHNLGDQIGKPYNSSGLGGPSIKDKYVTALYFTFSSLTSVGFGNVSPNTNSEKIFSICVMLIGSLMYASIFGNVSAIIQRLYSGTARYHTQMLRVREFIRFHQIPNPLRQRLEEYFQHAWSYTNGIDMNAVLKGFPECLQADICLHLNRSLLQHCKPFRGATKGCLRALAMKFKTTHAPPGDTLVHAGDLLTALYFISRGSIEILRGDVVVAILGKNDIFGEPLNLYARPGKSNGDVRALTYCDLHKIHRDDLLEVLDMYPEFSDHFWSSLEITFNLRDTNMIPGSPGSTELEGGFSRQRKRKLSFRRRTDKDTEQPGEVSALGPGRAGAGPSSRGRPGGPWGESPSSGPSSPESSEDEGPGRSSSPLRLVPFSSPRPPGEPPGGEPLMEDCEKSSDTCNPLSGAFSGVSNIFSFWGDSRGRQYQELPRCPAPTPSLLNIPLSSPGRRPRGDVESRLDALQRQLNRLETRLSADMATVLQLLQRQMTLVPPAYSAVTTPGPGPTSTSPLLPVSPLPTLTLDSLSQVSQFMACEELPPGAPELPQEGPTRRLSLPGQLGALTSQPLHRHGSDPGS
Voltage-gated inwardly rectifying potassium channel KCNH2, sequence (Q12809 whole entry): as above

Turning to `CCCOCCn1c(=O)c(NCCN2CCOCC2)nc2ncc(-c3ccc(OC)nc3)cc21`, the remaining at 0.5 h in data set [1] is 18%. Moreover, at 10 µM the inhibition on hERG (KCNH2) was 34%. The half-life in data set [2] is 3.4 h. The same compound came in with a Vd in [3] of 18.8 L/kg. Moreover, in [4], the fraction unbound was 0.235. The figures for the IC50 in [5], in data set [7] and in data set [10] were 0.34 nM, 1390 nM and 61.8 nM, respectively. The “inhibition (INH)” value in data set [6] was determined as 34%. Moreover, the Activity with Rattus norvegicus is 25 mmHg. In data set [8], the clearance was 178 mL/min/kg. This compound also displayed a solubility in data set [9] of 46 µM (≈ 21.6 µg/mL).
For `CCCOCCn1c(=O)c(NCCN2CCOCC2)nc2ncc(-c3ccc(OC)nc3)nc21`, the remaining at 0.5 h in [1] came out at 12%. The same compound displayed an inhibition at 10 µM at hERG (KCNH2) of 11%. For the same compound, the half-life in data set [2] is 0.6 h. In data set [3], this compound displayed a Vd of 5.2 L/kg. The Ratio IC50 in data set [11] is 335; in data set [12] it was less than 30. The fraction unbound in data set [4] is 0.088. Further, the IC50 in [5] was found to be 1.21 nM; in data set [7], 3560 nM; in data set [10], 297 nM. In data set [8], the clearance worked out at 151 mL/min/kg.
`CCCOCCn1c(=O)c(NCCN2CCOCC2)nc2cnc(-c3ccc(OC)nc3)nc21`: the remaining at 0.5 h in data set [1] turned out to be 22%. Moreover, the inhibition at 10 µM at hERG (KCNH2) came out at 15%. Further, the IC50 in data set [5] is 1.21 nM; in data set [7] it was 1470 nM; in [10], 83 nM. This compound also displayed a solubility in data set [9] of 4.6 µM (≈ 2.16 µg/mL).
Turning to `CCCOCCn1c(=O)c(NCCN2CCOCC2)nc2cnc(-c3ccc(OC)nc3)cc21`, the remaining at 0.5 h in [1] was determined as 38%. The compound further displayed an inhibition at 10 µM at hERG (KCNH2) of 23%. This compound also showed a half-life in data set [2] of 3.2 h. In [3], this compound came in with a Vd of 1.6 L/kg. Moreover, the bioavailability in data set [13] came out at 21%. The fraction unbound in [4] is 0.5. Further, the IC50 was determined as 0.07 nM in data set [5], 346 nM in data set [7] and 11.3 nM in data set [10]. For the same compound, the clearance in data set [8] came out at 33.6 mL/min/kg. This compound also gave a solubility in data set [9] of 18 µM (≈ 8.43 µg/mL).
The compound `CCCOCCn1c(=O)c(NCCN2CCOCC2)nc2ccc(-c3ccc(OC)nc3)cc21` came in with an inhibition at 10 µM at hERG (KCNH2) of 43%. Further, the IC50 in data set [5] is 0.9 nM; in data set [7] it was greater than 1990 nM; in [10] it was 177 nM. Besides, the remaining at 0.5 h in data set [14] turned out to be 20%.
As to `CCCOCCn1c(=O)c(NCCN2CCOCC2)nc2ccc(-c3ccc(OC)nc3)nc21`, the remaining at 0.5 h in [1] came to 10%. For the same compound, on hERG (KCNH2), testing at 10 µM gave an inhibition of 14%. The half-life in data set [2] was 3.1 h. Also, in [3], the Vd was found to be 8 L/kg. The compound also registered a bioavailability in data set [13] of 23%. For the same compound, the fraction unbound in [4] was 0.104. Besides, the IC50 is 1540 nM in data set [7] and 339 nM in data set [10]. This compound also yielded a clearance in data set [8] of 67.6 mL/min/kg. The solubility in data set [9] was 4.6 µM (≈ 2.16 µg/mL).
